Source: BigSolDB 2.1

C[N+](C)(C)C[C@H](O)CC(=O)[O-]
solubility (mole fraction)
Settings | in acetone | in ethanol | in isopropanol | in methanol
278.15 K | 7.1e-05 | 0.0392 | 0.00146 | 0.0962
283.15 K | 8.1e-05 | 0.0408 | 0.00181 | 0.0982
288.15 K | 9.1e-05 | 0.0431 | 0.00223 | 0.104
293.15 K | 0.000106 | 0.0452 | 0.00271 | 0.111
298.15 K | 0.000117 | 0.0483 | 0.0034 | 0.119
303.15 K | 0.000131 | 0.0517 | 0.00417 | 0.127
308.15 K | 0.000143 | 0.0546 | 0.00527 | 0.136
313.15 K | 0.000157 | 0.0576 | 0.0063 | 0.144
318.15 K | 0.000175 | 0.0607 | 0.00778 | 0.154
323.15 K | 0.000195 | 0.0648 | 0.00983 | 0.165
328.15 K | 0.00022 | 0.0698 | 0.0118 | 0.178
333.15 K | – | 0.0747 | 0.0144 | 0.189
338.15 K | – | 0.0801 | – | –
343.15 K | – | 0.0855 | – | –
348.15 K | – | 0.0919 | – | –
